Here are results for 1 molecule from paper PMC12491243, “Rational design of indoleamine 2,3-dioxygenase 1 (IDO1) inhibitors featuring 1,2,3-triazole derivatives with enhanced anti-inflammatory and analgesic efficacy” (Frontiers in Pharmacology, 2025).

For assay [1], the system named is TNF-α. The experiment in a line: ELISA of TNF-α in inflamed paw, spinal cord and serum of CFA mice. The format is in vivo. To be noted: ipsilateral L4–L6 spinal cord and serum, 72 h after CFA. From the text: (§1) To determine whether the analgesic effects of Compound 14e are associated with reduced local and systemic inflammation, we measured the levels of inflammatory factors in the inflamed paw tissue, ipsilateral L4–L6 spinal cord, and peripheral blood. The results indicated a significant increase in the protein levels of TNF-α and IL-1β in the inflamed paw, spinal cord, and serum of mice in the CFA group compared to the vehicle group.
(§2) FIGURE 6 Compound 14e reduces TNF-α and IL-1β in the inflamed hindpaw skin, spinal cord and peripheral blood 72 h after CFA-induced inflammation. (A,D) Expression levels of TNF-α and IL-1β in the inflamed skin tissue. (B,E) Expression levels of TNF-α and IL-1β in ipsilateral L4–6 spinal cord. […]
(§3) Under anesthesia with 1% pentobarbital sodium, serum was obtained from the mice orbits, after coagulation at room temperature for 2 h, the sample was then centrifuged at 1,000 × g for 20 min at 4 °C, with the supernatant collected. […] The protein concentrations were determined using a bicinchoninic acid (BCA) kit (Pierce Biotechnology Inc.). The following inflammatory factors were measured using Mouse TNF-α ELISA kit (EM0183) and IL-1β ELISA kit (EM0109) obtained from Wuhan Fine Biotechnology Company, according to the product protocols. The O.D. absorbance at 450 nm was quantified in a ultramicroplate spectrophotometer (BioTek Epoch).
(ELISA stands for enzyme-linked immunosorbent assay.)

The test system of assay [2] is Iba1. The experiment in a line: Western blot of Iba1 in spinal cord of CFA mice. It counts as in vivo. To be noted: L4–L6 spinal cord, 30 mg/kg i.p. once a day for 3 days, versus vehicle group. The protocol:
Given the critical role of microglial activation in inflammation-mediated responses, we investigated whether Compound 14e could modulate microglial activity in the spinal dorsal horn of mice following Complete Freund’s Adjuvant (CFA) injection. First, we assessed the expression of the microglial marker Iba1 in the L4–L6 segments of the spinal cord.
FIGURE 4 Compound 14e prevented the upregulation of Iba1 in CFA mice.
The mice were anesthetized with isoflurane, and 40 μL of CFA (Sigma-Aldrich) was intraplantarly injected into the mid-plantar surface of their left hind paws. As for the control group, an equivalent volume of normal saline was injected ([Jiang et al., 2018]).
The compound 14e were diluted with 10% DMSO, and were intraperitoneally injected with 30 mg/kg into the mice once a day for 3 days after CFA. The dosage of compound 14e was determined based on our preliminary experiments.
Animals were deeply anesthetized with 1% pentobarbital sodium (0.1 g/kg, i. p.) and the ipsilateral spinal cord in the lumbar enlargement site was rapidly separated and homogenized in ice-cold lysis buffer containing 50 mM Tris-HCl (pH 7.4), 150 mM NaCl, 1% NP-40, 0.1% SDS, 1 mM phenylmethylsulfonyl fluoride and protease phosphatase inhibitor (Solarbio Company, China). […] The protein concentrations were measured using a bicinchoninic acid (BCA) kit (Pierce Biotechnology Inc.). […]

Assay [3] has as its target T1, IDO1 (Homo sapiens, UniProt P14902).
T1 construct: endogenous in cells; host or cells: HeLa cells stimulated with 100 ng/mL human IFN-γ
The experiment in a line: HeLa cell-based IDO1 inhibition assay. To be noted: HeLa cells, 100 ng/mL human IFN-γ, 18 h, kynurenine absorbance at 480 nm. The protocol:
To evaluate the IDO1 inhibitory activity of the newly synthesized derivatives, HeLa cells with high IDO1 expression were used as the experimental model. […] To perform the HeLa cell-based IDO1 inhibition assay, HeLa cells were seeded at a density of 50,000 cells per well in a 96-well microplate containing 100 μL of DMEM supplemented with 10% fetal bovine serum and 1% penicillin-streptomycin. The cells were incubated overnight at 37 °C in a humidified atmosphere with 5% CO2. The following day, 100 μL of growth medium containing diluted inhibitors and 100 ng/mL human IFN-γ was added to each well. The cells were then incubated at 37 °C in a CO2 incubator for 18 h. […] The plate was incubated at 50 °C for 30 min and then centrifuged at 2,500 rpm for 10 min to remove any sediment. Next, 100 μL of the supernatant was transferred to a separate 96-well plate and mixed with 100 μL of 2% (w/v) 4-(dimethylamino)benzaldehyde in acetic acid. After a 10-min incubation at room temperature, the absorbance of the resulting yellow color, indicative of kynurenine, was measured at 480 nm using a microplate reader.

Assay [4] relates to IL-1β. The assay can be described thus: ELISA of IL-1β in inflamed paw, spinal cord and serum of CFA mice. The format is in vivo. As to conditions: ipsilateral L4–L6 spinal cord and serum, 72 h after CFA.
From the text: as §1, §2, §3

T1 sequence (P14902 whole entry): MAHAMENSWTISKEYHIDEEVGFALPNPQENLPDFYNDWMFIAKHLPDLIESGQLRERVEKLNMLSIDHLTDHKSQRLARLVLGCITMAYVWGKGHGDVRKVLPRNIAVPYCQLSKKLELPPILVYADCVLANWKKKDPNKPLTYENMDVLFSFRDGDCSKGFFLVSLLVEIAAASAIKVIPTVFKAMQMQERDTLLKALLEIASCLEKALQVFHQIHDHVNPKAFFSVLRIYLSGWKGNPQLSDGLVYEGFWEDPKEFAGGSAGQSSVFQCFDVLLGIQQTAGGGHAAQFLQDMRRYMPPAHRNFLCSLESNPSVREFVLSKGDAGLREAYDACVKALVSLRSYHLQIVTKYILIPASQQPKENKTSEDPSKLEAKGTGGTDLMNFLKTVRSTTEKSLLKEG

Take `O=C1COc2ccc(NC(=O)c3cccc(-c4cn(Cc5c(F)cccc5Cl)nn4)c3)cc2N1` [Compound 14e]: in assay [1], the “CFA-induced levels of TNF-α” value was “significantly decreased”. Also, the “Iba1 protein level (Western blot)” value in assay [2] is on record as “significantly reduced”. Also, in assay [3], the IC50 (usually the concentration that gives 50% inhibition) was found to be 3.63 µM. Also, the “CFA-induced levels of IL-1β” value in assay [4] is recorded as “significantly decreased”.
